{"source": "patent US12023319B2", "about": "“Carboxylic acid aromatic amides” (priority 2016, dated 2024)", "key": {"Female Brown Norway rats": {"tested_on": "Female Brown Norway rats", "assay": "Rat model for endometriosis, late phase (15 day)", "type": "in vivo", "settings": "rat 15 day endometriosis model, once daily p.o. 5, 30, 60 mg/kg; FIG. 5-6", "method": "5. Rat Model for Endometriosis, Late Phase Female Brown Norway rats (Charles-River) were treated with Compound Example 3 (doses: 5 mg/kg, 30 mg/kg, 60 mg/kg) or vehicle alone (10% DMSO+90% phosphate buffered saline (PBS). 2 h later all animals got under deep anesthesia a transplantation of 6 uterus pieces in the peritoneal cavity. The tissue was obtained from donor animals which were pre-treated with 3 μg s.c. Estradiol for 2 days to guarantee standardized conditions of the uterus tissue. The animals were treated once daily p.o. with Compound Example 3 (doses: 5 mg/kg, 30 mg/kg, 60 mg/kg) or respective vehicle (10% DMSO+90% phosphate buffered saline (PBS). 15 days later the animals were sacrificed and the transplants as surrogate endometriosis lesion tissue were analyzed for markers of lesion activity (inflammatory cytokines). This approach is mimicking the long term effect on established inflammation in endometriosis. Analysis For ex vivo cytokine analysis, animals were sacrificed and tissues (endometriosis lesions) were frozen at −80° C. […] After centrifugation at 13.000 U/min (Eppendorf) supernatants were analyzed for cytokine levels using Bio-Plex Pro™ Rat Cytokine 24-plex (Bio Rad Assay #171K1001M) or the Bio-Plex Pro™ Mouse Cytokine 23-Plex (Bio Rad Assay #M600009RDPD) according to the manufacturer's protocols."}, "Male Sprague-Dawley rats": {"tested_on": "Male Sprague-Dawley rats", "assay": "Rat STZ model for diabetic neuropathy (cold plate, warm plate, paw pressure, SNCV)", "type": "in vivo", "settings": "for Latency in Cold plate / Latency in Warm plate / Paw pressure: STZ rats; for Latency in Cold plate / Latency in Warm plate: Day 10, individual animals; for Paw pressure: Day 21, individual animals", "method": "7. Rat STZ Model for Diabetic Neuropathy (Diabetic Neuropathic Pain, Diabetes Induced Nerve Degeneration)\nThe streptozotocin (STZ) diabetic rat is the most extensively studied animal model of diabetic neuropathy. The animals develop rapidly allodynia and hyperalgesia.\nMale Sprague-Dawley rats (˜200 g) were used. They were rendered diabetic by intravenous injection of streptozotocin (55 mg/kg; day 0). Four days (day 4) later, diabetes was confirmed in STZ-injected rats by obtaining a blood sample from the tail vein and by measuring the glucose concentration using a glucose monitor. Only STZ-treated rats with plasma-glucose>260 mg/dl were deemed “diabetic”. The body weight of rats was recorded on daily basis from day 4 to 40.\n72 animals were randomly assigned to different groups (12 rats per group).\nCompound example 3 was prepared in 10% DMSO in PBS (v/v). […] The treatment was performed on daily basis (twice a day: morning and afternoon) from day 4 until day 40. On the day where behavioral measures are performed, compound or vehicle was given 60 min prior the assessment. On the day where electrophysiological measure was performed, treatment was performed after the assessment.\nFor positive control regarding analgesia, morphine was dissolved in 0.9% NaCl, and administrated subcutaneously (s.c.) at the dose of 3 mg/kg 45 min prior the tests.\nExperimental Plan: • Day 0: induction of diabetes by injection of STZ for all groups except the control group injected with the STZ vehicle • Day 4: glycemia monitoring for all groups and start of the treatment for all groups, except the morphine group. On day 4 rats received only the evening treatment. • Day 10: cold and warm allodynia test for all groups. Treatment is given 60 min prior to the assessment. On that day, the time between the morning and the evening treatment was reduced. • Day 21: Mechanical hyperalgesia test for all groups. Compound or vehicle was given 60 min prior to the assessment. On that day, the time between the morning and the evening treatment was reduced. • Day 22: Termination of rats in the morphine group. • Day 25-26: measurement of sensory nerve conduction velocity (SNCV). On that day, rats only received the evening treatment. • Day 39-40: measurement of sensory nerve conduction velocity (SNCV). On that day, rats only received the evening treatment. • Day 41: skin biopsy from all rats (histology processing and immunostaining of skin biopsy from 7 rats per group take about 4 weeks).\nCold Plate Test on Day 10\nThe animals were placed into a glass cylinder on a cold platform (0-1° C.). The latency before the first reaction (brisk move of the paw, little leaps) was recorded with a maximal time of 30 s.\nWarm Plate Test on Day 10\nThe animals were placed into a glass cylinder on a hot plate adjusted to 42° C. The latency of the first reaction was recorded (paw lifting or licking, leaps or a jump to escape the heat). Results can be seen in FIG. 8 and table 6.\nPaw pressure test is used to assess the hyperalgesia of animals in response to noxious mechanical stimulus. The nociceptive flexion reflex was quantified using the Randall-Selitto paw pressure device (Bioseb, France), which applies a linearly increasing mechanical force to the dorsum of the rat's hind paw. The mechanical nociceptive threshold is defined as the force in grams at which the rat withdraws its paw. The cut off pressure was set to 250 g.\nElectrophysiological Measurements (SNCV)\nElectrophysiological recordings of SNCV were performed using a Keypoint Electromyograph (EMG) (Medtronic, France). Rats were anaesthetized by intraperitoneal injection of 60 mg/kg ketamine chlorhydrate and 4 mg/kg xylazine. SNCV was recorded in the tail. Electrodes were placed as follows: The recording needle electrode was inserted near the base of the tail and stimulating needle electrode is placed about 50 mm away from the recording electrode towards the extremity of the tail. […]"}}, "note": "Where “and” joins values, the source holds several entries; their conditions need not be identical. Equal entries are not always repeated."}
{"smiles": "O=C(O)c1cc(NC(=O)C2(c3ccc(C(F)(F)F)cc3F)CC2)ccc1-c1cnn(C2CCC2)c1", "note": "[Example 3, 2-(1-Cyclobutyl-1H-pyrazol-4-yl)-5-[({1-[2-fluoro-4-(trifluoromethyl)phenyl]cyclopropyl}carbonyl)amino]benzoic acid]", "values": [{"measurement": "expression of inflammatory cytokines in the lesions (IL-1 alpha, IL-1 beta)", "setting": "Female Brown Norway rats", "result": "decreased"}, {"measurement": "effects in all endpoints (warm/cold/mechanical) of neuropathic pain", "setting": "Male Sprague-Dawley rats; STZ diabetic rats, p.o. twice a day from day 4, tests on day 10 and day 21", "result": "significant effects"}, {"measurement": "Latency in Cold plate", "setting": "Male Sprague-Dawley rats; 3 mg/kg, 3 mg/kg", "result": "14.39 s and 14.46 s and 22.78 s and 15.84 s and 16.87 s and 16.18 s and 21.38 s and 20.52 s and 17.93 s and 15.23 s and 26.66 s and 23.47 s"}, {"measurement": "Latency in Warm plate", "setting": "Male Sprague-Dawley rats; 3 mg/kg, 3 mg/kg", "result": "19.71 s and 21.41 s and 22.31 s and 20.16 s and 14.49 s and 17.12 s and 22.29 s and 17.89 s (2×) and 23.35 s and 24.72 s and 21.04 s"}, {"measurement": "Paw pressure", "setting": "Male Sprague-Dawley rats; 3 mg/kg, 3 mg/kg", "result": "125 g (3×) and 150 g (2×) and 105 g (4×) and 115 g and 140 g and 100 g"}, {"measurement": "Latency in Cold plate", "setting": "Male Sprague-Dawley rats; 15 mg/kg, 15 mg/kg", "result": "22.94 s and 18.19 s and 23.62 s and 18.66 s and 20.23 s and 19.51 s and 23.02 s and 17.08 s and 24.66 s and 24.25 s and 20.00 s"}, {"measurement": "Latency in Warm plate", "setting": "Male Sprague-Dawley rats; 15 mg/kg, 15 mg/kg", "result": "21.21 s and 17.56 s and 30.00 s and 23.09 s and 23.47 s and 19.44 s and 28.47 s and 15.88 s and 24.82 s and 20.31 s and 27.35 s"}, {"measurement": "Paw pressure", "setting": "Male Sprague-Dawley rats; 15 mg/kg, 15 mg/kg", "result": "100 g and 125 g (2×) and 135 g (2×) and 120 g and 110 g (3×) and 85 g and 105 g"}, {"measurement": "Latency in Cold plate", "setting": "Male Sprague-Dawley rats; 60 mg/kg, 60 mg/kg", "result": "20.21 s and 15.60 s and 17.29 s and 19.84 s and 14.52 s and 13.66 s and 22.28 s and 24.12 s and 21.12 s and 17.48 s and 22.45 s and 16.59 s"}, {"measurement": "Latency in Warm plate", "setting": "Male Sprague-Dawley rats; 60 mg/kg, 60 mg/kg", "result": "17.88 s and 24.69 s and 21.32 s and 18.69 s and 21.23 s and 28.84 s and 18.84 s and 30.00 s and 23.02 s and 20.56 s and 26.94 s and 20.31 s"}, {"measurement": "Paw pressure", "setting": "Male Sprague-Dawley rats; 60 mg/kg, 60 mg/kg", "result": "105 g and 165 g and 95 g and 115 g (3×) and 140 g and 120 g and 110 g (3×) and 190 g"}]}
